Here are results for two molecules from US20010018452A1 (published 2001).

By melting point is commonly meant the temperature of the solid-liquid transition.

Molecule `CON=C(C(=O)OC)c1cc(C)c(C)cc1COc1ccccc1C` came in with a melting point of 82 to 84 °C.

For the molecule `CNC(=O)C(=NOC)c1cc(C)c(C)cc1C(ON)=C(C)c1cccc(C(F)(F)F)c1`, the melting point lay in the range of 129 to 134 °C.
